From the supplement of paper PMC10307832

Assays:
Assay in all cases: relative viability (nuclei count vs DMSO), 5 days (fraction); higher = more cells survive
Carboplatin + Pictilisib = compound: C1CC(C1)(C(=O)O)C(=O)O.[NH2-].[NH2-].[Pt+2] [Carboplatin] + CS(=O)(=O)N1CCN(Cc2cc3nc(-c4cccc5[nH]ncc45)nc(N4CCOCC4)c3s2)CC1 [Pictilisib] (partner 1 µM)
In short: (§1)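 Lung cancer cell lines in 1536-well plates were dosed by pin tool the day after seeding, either with one drug alone or with a fixed anchor-drug dose plus five library-drug doses (not always all listed) in √10 steps. After 5 days, cells were fixed and their nuclei stained in one step (final 0.05% Triton X-100, 1% formaldehyde, 1 ug/ml Hoechst), then counted on 4× images. Relative viability is the nuclei count in treated wells divided by that in vehicle wells. Values are medians of duplicate plates.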

MLN4924 + Navitoclax = compound: NS(=O)(=O)OC[C@@H]1C[C@@H](n2ccc3c(N[C@H]4CCc5ccccc54)ncnc32)C[C@@H]1O [MLN4924] + CC1(C)CCC(c2ccc(Cl)cc2)=C(CN2CCN(c3ccc(C(=O)NS(=O)(=O)c4ccc(N[C@H](CCN5CCOCC5)CSc5ccccc5)c(S(=O)(=O)C(F)(F)F)c4)cc3)CC2)C1 [Navitoclax] (partner 0.5 µM)
In short: as §1

[1] = compound: C1CC(C1)(C(=O)O)C(=O)O.[NH2-].[NH2-].[Pt+2] [Carboplatin] + CC(=O)c1c(C)c2cnc(Nc3ccc(N4CCNCC4)cn3)nc2n(C2CCCC2)c1=O [Palbociclib] (partner 0.5 µM)
In short: as §1

MLN4924 + Linsitinib = compound: NS(=O)(=O)OC[C@@H]1C[C@@H](n2ccc3c(N[C@H]4CCc5ccccc54)ncnc32)C[C@@H]1O [MLN4924] + C[C@]1(O)C[C@@H](c2nc(-c3ccc4ccc(-c5ccccc5)nc4c3)c3c(N)nccn32)C1 [Linsitinib] (partner 1 µM)
In short: as §1

Row | Cell Line | relative viability (Carboplatin + Pictilisib; first compound 0.08 µM) | relative viability (Carboplatin + Pictilisib; first compound 0.253 µM) | relative viability (Carboplatin + Pictilisib; first compound 0.8 µM) | relative viability (Carboplatin + Pictilisib; first compound 2.53 µM) | relative viability (Carboplatin + Pictilisib; first compound 8 µM) | relative viability (MLN4924 + Navitoclax; first compound 0.04 µM) | relative viability (MLN4924 + Navitoclax; first compound 0.1265 µM) | relative viability (MLN4924 + Navitoclax; first compound 0.4 µM) | relative viability (MLN4924 + Navitoclax; first compound 1.265 µM) | relative viability (MLN4924 + Navitoclax; first compound 4 µM) | relative viability ([1]; first compound 0.08 µM) | relative viability ([1]; first compound 0.253 µM) | relative viability ([1]; first compound 0.8 µM) | relative viability ([1]; first compound 2.53 µM) | relative viability ([1]; first compound 8 µM) | relative viability (MLN4924 + Linsitinib; first compound 0.04 µM) | relative viability (MLN4924 + Linsitinib; first compound 0.1265 µM) | relative viability (MLN4924 + Linsitinib; first compound 0.4 µM) | relative viability (MLN4924 + Linsitinib; first compound 1.265 µM) | relative viability (MLN4924 + Linsitinib; first compound 4 µM)
1 | LK-2 | 0.707 | 0.643 | 0.462 | 0.401 | 0.613 | 0.86 | 0.639 | 0.411 | 0.195 | 0.225 | 0.619 | 0.824 | 0.796 | 0.789 | 0.658 | 0.497 | 0.46 | 0.289 | 0.198 | 0.203
2 | NCI-H2085 | 0.525 | 0.502 | 0.477 | 0.458 | 0.399 | 1.25 | 1.1 | 1.12 | 0.733 | 0.366 | 0.473 | 0.486 | 0.462 | 0.456 | 0.452 | 0.868 | 0.839 | 0.577 | 0.313 | 0.235
3 | LC-2-ad | 0.669 | 0.477 | 0.436 | 0.447 | 0.399 | 0.382 | 0.276 | 0.184 | 0.13 | 0.105 | 0.503 | 0.561 | 0.419 | 0.466 | 0.47 | 0.854 | 0.533 | 0.281 | 0.162 | 0.13
4 | NCI-H322M | 0.567 | 0.465 | 0.507 | 0.542 | 0.521 | 1.3 | 1.22 | 0.844 | 0.338 | 0.382 | 0.496 | 0.476 | 0.472 | 0.45 | 0.507 | 0.86 | 0.908 | 0.913 | 0.262 | 0.328
5 | LCLC-97TM1 | 0.209 |  | 0.233 | 0.194 | 0.18 | 0.277 | 0.281 | 0.139 | 0.134 | 0.109 | 0.206 | 0.211 | 0.257 | 0.211 | 0.206 | 0.191 | 0.23 | 0.156 | 0.103 | 0.131
6 | NCI-H1792 | 0.327 | 0.261 | 0.236 | 0.22 | 0.246 | 0.594 | 0.46 | 0.567 | 0.338 | 0.109 | 0.674 | 0.607 | 0.639 | 0.616 | 0.569 | 0.548 | 0.664 | 0.804 | 0.184 | 0.124
7 | NCI-H1944 | 0.338 | 0.321 | 0.336 | 0.327 | 0.342 | 1.05 | 0.979 | 0.873 | 0.209 | 0.215 | 0.335 | 0.359 | 0.332 | 0.332 | 0.272 | 1.38 | 1.19 | 1.02 | 0.257 | 0.37
8 | NCI-H1755 | 0.432 | 0.442 | 0.407 | 0.417 | 0.391 | 0.921 | 0.677 | 0.392 | 0.178 | 0.154 | 0.477 | 0.501 | 0.515 | 0.441 | 0.461 | 1.07 | 0.701 | 0.447 | 0.159 | 0.2
9 | H3255 | 0.54 | 0.504 | 0.375 | 0.407 | 0.425 | 0.592 | 0.434 | 0.226 | 0.131 | 0.175 | 0.303 | 0.303 | 0.308 | 0.275 | 0.306 | 0.927 | 0.593 | 0.354 | 0.201 | 0.257
10 | NCI-H23 | 0.477 | 0.483 | 0.481 | 0.472 | 0.391 | 0.759 | 0.69 | 0.281 | 0.218 | 0.148 | 0.453 | 0.513 | 0.513 | 0.461 | 0.419 | 0.632 | 0.405 | 0.203 | 0.135 | 0.149
